Test results from patent publication US20220160718A1, “COMPOSITIONS AND METHODS OF TREATING CANCER” (Bristol-Myers Squibb Company, priority 2018, published 2022).

Assays:
[1] = tested on: Mouse colon tumor MC38 cells; test: Mouse colon tumor (MC38) model, anti-tumor efficacy; format: in vivo
Method: (§1) Female C57BL/6 mice from Charles River Laboratories (Raleigh, N.C.) were received in house at age 6-8 weeks and acclimated for 3-7 days prior to implant. Mouse colon tumor MC38 cells were implanted subcutaneously at a concentration of 1×10^7 cells/mL, 0.1 mL per injection, using a 1 mL tuberculin syringe with 25 g needle.
On Day 6 post implant, mice were randomized and sorted into groups with 10 mice per group. […] Antibody B was administered i.p. every 4 days for a total of 3 doses.
(§2) Tumors and group body weights were weighed and measured twice weekly until tumors reached a volume of approximately 1500 mm^3. Animals were euthanized if the tumor reached a volume greater than approximately 1500 mm^3 or appeared ulcerated. Mean, median and/or survival plots as well as number of tumor-free mice were calculated to determine efficacy.

[2] = tested on: Mouse colon tumor CT26 cells; test: Mouse colon tumor (CT26) model, anti-tumor efficacy; format: in vivo
Method: as §1, with “BALB/C” for “C57BL/6”, “ENVIGO (Frederick, Md.)” for “Charles River Laboratories (Raleigh, N.C.)”, “implantation.” for “implant.”, “CT26” for “MC38”
On Day 10 post implant, mice were randomized and sorted into groups with 10 mice per group. […] Antibody B was administered i.p. every 4 days for a total of 3 doses.
as §2

human CCR2 [3] = molecular target: T1, human CCR2 (Homo sapiens, UniProt P41597); test: Human CCR2-mediated CD11b integrin upregulation in whole blood; format: cell-based; settings: human pharmacology, MCP-1 10 nM, read-out: CCR2 Potency, ligand-induced integrin upregulation in whole blood
Method: A CCR2-dependent CD11b upregulation assay was established with human whole blood. […] The reactions were incubated for 30 minutes at 37° C. […] The samples were then incubated for 30 minutes on ice in the dark. […] Data acquisition and analysis were performed using CellQuestPro™ software. A sequential gating strategy was used to analyze the CD14high CD11b+ monocyte population. […] A similar procedure for mouse CCR5 was adopted except that MIP-1beta (50 nM) was used as the ligand.

human CCR2 [4] = molecular target: T1, human CCR2; test: Human CCR2-mediated calcium flux in THP-1 cells; format: cell-based; design: established with the human monocytic cell line, THP-1; endogenous in cells; host or cells: THP-1 human monocytic cell line; settings: human pharmacology, human MCP-1 10 nM, read-out: CCR2 Potency, ligand-induced calcium flux in cells
Method: (§3) All samples were tested in duplicate.

mouse CCR2 = molecular target: T2, mouse CCR2 (Mus musculus, UniProt P51683); test: Mouse CCR2 potency (assay not specified)
T2 construct: WEHI-274.1 mouse monocyte line; endogenous in cells; host or cells: WEHI-274.1 mouse monocyte line

Mouse PK of Compound C = format: in vivo
human CCR5 [5] = molecular target: T3, human CCR5 (Homo sapiens, UniProt P51681); test: Human CCR5-mediated CD11b integrin upregulation in whole blood; format: cell-based; design: established with human whole blood; from tissue; host or cells: human whole blood; settings: human pharmacology, MIP-1beta 50 nM, read-out: CCR5 Potency, ligand-induced integrin upregulation in whole blood
human CCR5 [6] = molecular target: T3, human CCR5; test: Human CCR5-mediated calcium flux in HT1080/CCR5 cells; format: cell-based; settings: human pharmacology, MIP-1beta 50 nM, read-out: CCR5 Potency, ligand-induced calcium flux in cells
Method: as §3

human CCR5 [7] = molecular target: T3, human CCR5; test: Inhibition of 125I-MIP-1beta binding to human T cells (human CCR5); design: hPBMCs and human T cells were isolated from human leukopak; endogenous in cells; host or cells: human T cells isolated from human leukopak; settings: human pharmacology, 125I-human MIP-1beta, read-out: CCR5 Potency, binding on CCR5-expressing cells (displacing 125I-labelled ligand)
Method: All conditions were tested in duplicate.

mouse PD-1 [8] = molecular target: T4, mouse PD-1 (Mus musculus, UniProt Q02242); test: Blocking binding of PD-L2 to mouse PD-1 on CHO transfectants; settings: mouse potency; mouse PD-L2, CHO mouse PD-1; read-out: Blocking PD-L2 binding to PD1-expressing cells for IC50
T4 construct: expressed in transfected cells; host or cells: CHO cells
T4 sequence (Q02242 25-288): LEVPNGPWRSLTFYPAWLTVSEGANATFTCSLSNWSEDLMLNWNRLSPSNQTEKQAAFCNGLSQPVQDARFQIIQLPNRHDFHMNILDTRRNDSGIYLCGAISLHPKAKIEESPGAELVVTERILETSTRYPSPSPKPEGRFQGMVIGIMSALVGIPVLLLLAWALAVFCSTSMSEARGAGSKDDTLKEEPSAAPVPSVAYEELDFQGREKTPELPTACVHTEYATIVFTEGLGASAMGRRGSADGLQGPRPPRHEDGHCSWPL
Method: CHO transfectants stably expressing human and mouse PD-1 were pre-incubated with titrated mAbs against human and mouse PD-1, respectively, followed by addition of PD-L2-Fc at 15 μg/ml. Cell-bound PD-L2-Fc was detected with a FITC-conjugated secondary to human IgG Fc.

[9] = Tolerability in MC38 tumor-bearing mice; format: in vivo; settings: MC38 model; alone or in combination
Method: as §2

[10] = Tolerability in CT26 tumor-bearing mice; format: in vivo; settings: CT26 model; alone or in combination
Method: as §2

mouse PD-1 [11] = molecular target: T4, mouse PD-1; test: Blocking binding of PD-L1 to mouse PD-1 on CHO transfectants; settings: mouse potency; mouse PD-L1, CHO mouse PD-1; read-out: Blocking PD-L1 binding to PD1-expressing cells for IC50
Method: CHO transfectants stably expressing human and mouse PD-1 were pre-incubated with titrated mAbs against human and mouse PD-1, respectively, followed by addition of PD-L1-Fc at 2 μg/mL. Cell-bound PD-L1-Fc was detected with a FITC-conjugated secondary to human IgG Fcγ.

mouse PD-1 [12] = molecular target: T4, mouse PD-1; test: Direct binding of anti-PD-1 mAb to mouse PD-1 on CHO transfectants; settings: mouse potency; mouse PD1-expressing CHO cells
Method: Assays for Direct Binding of Anti-PD-1 Monoclonal Antibody (mAb) to PD1 Stably Expressed on CHO Transfectants
mAbs against human and mouse PD-1 were serially diluted and incubated with CHO cell transfectants stably expressing human and mouse PD-1, respectively, followed by detection with a FITC-conjugated secondary to mouse IgG Fcγ.

T3 sequence (P51681 whole entry): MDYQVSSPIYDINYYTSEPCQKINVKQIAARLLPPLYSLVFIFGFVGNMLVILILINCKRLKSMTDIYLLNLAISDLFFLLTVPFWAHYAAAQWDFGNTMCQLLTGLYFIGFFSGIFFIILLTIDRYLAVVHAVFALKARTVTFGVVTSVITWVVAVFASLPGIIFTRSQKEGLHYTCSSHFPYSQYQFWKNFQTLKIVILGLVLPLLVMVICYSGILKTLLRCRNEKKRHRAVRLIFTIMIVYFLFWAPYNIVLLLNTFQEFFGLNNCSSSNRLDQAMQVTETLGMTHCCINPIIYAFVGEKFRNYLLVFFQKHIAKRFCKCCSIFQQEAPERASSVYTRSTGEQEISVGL
T1 sequence (P41597 whole entry): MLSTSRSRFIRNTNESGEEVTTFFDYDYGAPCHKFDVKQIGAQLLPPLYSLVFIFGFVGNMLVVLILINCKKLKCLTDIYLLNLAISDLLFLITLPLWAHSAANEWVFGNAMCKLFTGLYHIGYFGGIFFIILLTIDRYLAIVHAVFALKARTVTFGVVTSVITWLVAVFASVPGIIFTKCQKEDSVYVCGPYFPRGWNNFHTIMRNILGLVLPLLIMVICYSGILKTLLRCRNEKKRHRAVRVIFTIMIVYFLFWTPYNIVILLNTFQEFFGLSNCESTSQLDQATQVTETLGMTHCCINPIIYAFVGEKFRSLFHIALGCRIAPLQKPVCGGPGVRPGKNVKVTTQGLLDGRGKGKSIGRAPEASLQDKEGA
T2 sequence (P51683 whole entry): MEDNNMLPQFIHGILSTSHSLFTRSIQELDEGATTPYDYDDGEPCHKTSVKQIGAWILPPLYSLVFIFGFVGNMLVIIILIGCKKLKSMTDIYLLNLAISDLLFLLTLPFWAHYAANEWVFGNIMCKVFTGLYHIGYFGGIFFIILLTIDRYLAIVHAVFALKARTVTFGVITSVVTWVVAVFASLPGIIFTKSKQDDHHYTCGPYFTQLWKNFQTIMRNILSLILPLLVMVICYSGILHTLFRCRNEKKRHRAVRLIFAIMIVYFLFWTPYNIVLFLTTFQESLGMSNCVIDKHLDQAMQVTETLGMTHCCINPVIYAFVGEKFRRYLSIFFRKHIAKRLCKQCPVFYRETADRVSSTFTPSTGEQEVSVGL

CCC[C@@H]1C[C@H](N(C)C(C)C)CC[C@@H]1N1CC[C@H](Nc2ncnc3ccc(C(F)(F)F)cc23)C1=O [Compound A, (S)-1-((1S,2R,4R)-4-(isopropyl(methyl)amino)-2-propylcyclohexyl)-3-((6-(trifluoromethyl)quinazolin-4-yl)amino)pyrrolidin-2-one]
Tumor-free mice ([1]; MC38 Study #1, Compound A 25 mg/kg PO BID 28 days alone): 0/10
Tumor-free mice ([1]; MC38 Study #1, Compound A 50 mg/kg PO BID 28 days alone): 0/10
Tumor-free mice ([1]; MC38 Study #1, Compound A 100 mg/kg PO BID 28 days alone): 0/10
Tumor-free mice ([1]; MC38 Study #2, Compound A 6.25 mg/kg PO BID 28 days alone): 0/10
Tumor-free mice ([1]; MC38 Study #2, Compound A 50 mg/kg PO BID 28 days alone): 0/10
Tumor-free mice ([2]; Compound A 12.5 mg/kg PO BID 28 days alone): 0/10
Tumor-free mice ([2]; Compound A 25 mg/kg PO BID 28 days alone): 0/10
Tumor-free mice ([2]; Compound A 50 mg/kg PO BID 28 days alone): 0/10

CC(=O)N[C@@H]1C[C@H](NC(C)(C)C)CC[C@@H]1N1CC[C@H](Nc2ncnc3cc(C(C)(C)C)nn23)C1=O [Compound C, N-((1R,2S,5R)-5-(tert-butylamino)-2-((S)-3-(7-tert-butylpyrazolo[1,5-a][1,3,5]triazin-4-ylamino)-2-oxopyrrolidin-1-yl)cyclohexyl)acetamide]
IC50 (human CCR2 [3]): 4.8 nM
IC50 (human CCR2 [4]): 2.9 nM
mouse CCR2 potency (mouse CCR2): poor
mouse PK (Mouse PK of Compound C): poor
IC50 (human CCR5 [5]): 5.7 nM
IC50 (human CCR5 [6]): 2 nM
IC50 (human CCR5 [7]): 3.6 nM

B1: Antibody B: anti-mouse PD-1 antibody generated by murinizing the Fc tail of 4H2; contains a mouse IgG1 D265A; SEQ ID NO: 1 and 2 (protein)
light: DTVLTQSPALAVSLGQRVTISCKASETVSSSMYSYIHWYQQKPGQQPKLLIYRASNLESGVPARFSGSGSGTDFTLTIDPVEADDVATYFCQQSWNPWTFGGGTKLELKRADAAPTVSIFPPSSEQLTSGGASVVCFLNNFYPKDINVKWKIDGSERQNGVLNSWTDQDSKDSTYSMSSTLTLTKDEYERHNSYTCEATHKTSTSPIVKSFNRNEC
heavy: QVQLKESGPGLVQPSQTLSLTCTVSGFSLTSYNVHWVRQPPGKGLEWMGGMRYNEDTSYNSALKSRLSISRDTSKNQVFLKMNSLQTDDTGTYYCTRDAVYGGYGGWFAYWGQGTLVTVSSAKTTPPSVYPLAPGSAAQTNSMVTLGCLVKGYFPEPVTVTWNSGSLSSGVHTFPAVLQSDLYTLSSSVTVPSSTWPSETVTCNVAHPASSTKVDKKIVPRDCGCKPCICTVPEVSSVFIFPPKPKDVLTITLTPKVTCVVVDISKDDPEVQFSWFVDDVEVHTAQTQPREEQFNSTFRSVSELPIMHQDWLNGKEFKCRVNSAAFPAPIEKTISKTKGRPKAPQVYTIPPPKEQMAKDKVSLTCMITDFFPEDITVEWQWNGQPAENYKNTQPIMDTDGSYFVYSKLNVQKSNWEAGNTFTCSVLHEGLHNHHTEKSLSHSPGK
modifications: Antibody B Light chain variable; Antibody B heavy chain variable
IC50 (mouse PD-1 [8]): 4.9 nM
tolerability [9]: well tolerated
Tumor-free mice ([1]; MC38 Study #1, Antibody B 10 mg/kg i.p., 3 doses, alone): 1/10
Tumor-free mice ([1]; MC38 Study #2, Antibody B 10 mg/kg, 3 doses, alone): 0/10
tolerability [10]: well tolerated
IC50 (mouse PD-1 [11]): 3.6 nM
EC50 (mouse PD-1 [12]): 2.9 nM
Tumor-free mice ([2]; Antibody B 10 mg/kg, 3 doses, alone): 0/10
